The values below come from PubChem BioAssay (NCI).

Among the test systems are SK-OV-3 ovarian; U251 CNS; MDA-N; NCI-H460 lung; DU-145 prostate; HS 578T breast; A549 NSCLC; HT29 colon; SF-268 CNS; OVCAR-8 ovarian; HOP-92 NSCLC.
Common to all, as to experiment: NCI-60 cell line screen, 48 h

Structures are written as SMILES. Values joined by “and” are separate entries in the source; they are usually repeats but may differ in a detail not shown here. Identical values can stand only once.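 1) Cells in 96-well plates. 2) Compound, 48 h, 5 concentrations. 3) Linear interpolation between surrounding doses. 4) Unreached endpoint = highest concentration. GI50: concentration for 50% inhibition of growth. TGI denotes the concentration required for complete inhibition of growth.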 Bounds are passed on as bounds.

Regarding `C[n+]1c2ccccc2c(C(=O)Nc2ccc(S(=O)(=O)Nc3ncccn3)cc2)c2ccccc21`, the TGI in the assay on SK-OV-3 ovarian, in the assay on U251 CNS, in the assay on MDA-N, with NCI-H460 lung, in the assay on DU-145 prostate and in the assay on HS 578T breast was over 100 µM each time. Moreover, the TGI with A549 NSCLC, in the assay with HT29 colon, in the assay on SF-268 CNS and in the assay on OVCAR-8 ovarian was over 100 µM each time.
Take `CC(C)(CN1CCCCC1)C(=O)CC(SCCS(=O)(=O)O)c1ccc(Cl)cc1` (stereo not drawn): the TGI with SK-OV-3 ovarian is 28.8 µM; in the assay with U251 CNS, 22.3 µM; with MDA-N it was 9.57 µM; with HOP-92 NSCLC, 7.13 µM; with NCI-H460 lung, 25.2 µM; in the assay with DU-145 prostate it was 21.7 µM. Also, the TGI was 7.5 µM in the assay with HS 578T breast, 23.5 µM in the assay with A549 NSCLC, 12.6 µM in the assay with HT29 colon and 11.1 µM in the assay with OVCAR-8 ovarian.
Consider `CCOC(=O)C1CCC(=O)N1C(=O)c1ccc(Cl)cc1` (stereo not drawn), for which the TGI in the assay on U251 CNS, in the assay with MDA-N, in the assay on HOP-92 NSCLC, in the assay on NCI-H460 lung, with DU-145 prostate and in the assay with HS 578T breast was over 100 µM each time. The TGI in the assay on A549 NSCLC, in the assay with HT29 colon, in the assay on SF-268 CNS and in the assay with OVCAR-8 ovarian was over 100 µM each time.
In the case of `CCOC(=O)C1C(c2ccc(OC)cc2)c2c([nH]n(-c3ccccc3)c2=O)CC1(C)O` (stereo not drawn), the TGI in the assay with U251 CNS, in the assay with MDA-N, in the assay on HOP-92 NSCLC, in the assay with NCI-H460 lung, with DU-145 prostate and in the assay with HS 578T breast was over 100 µM each time. Also, the TGI in the assay on A549 NSCLC, in the assay with HT29 colon, in the assay on SF-268 CNS and in the assay on OVCAR-8 ovarian was over 100 µM throughout.
On to `CC(=O)N1c2cc(N=NN(C)C)ccc2NC(=O)CC1C` (stereo not drawn), for which the TGI in the assay on SK-OV-3 ovarian, in the assay on U251 CNS, in the assay with MDA-N, in the assay with NCI-H460 lung, with DU-145 prostate and in the assay with HS 578T breast was over 100 µM throughout. Also, the TGI in the assay on A549 NSCLC, in the assay with HT29 colon, in the assay with SF-268 CNS and in the assay on OVCAR-8 ovarian was over 100 µM in each case.
Consider `CN(C)C(=O)Oc1ccc(C(=S)Nc2ccccc2)cc1`, for which the TGI in the assay with SK-OV-3 ovarian, with U251 CNS, with MDA-N, in the assay with NCI-H460 lung, with DU-145 prostate and in the assay on HS 578T breast was over 100 µM throughout. The TGI is over 100 µM with A549 NSCLC, over 100 µM in the assay on HT29 colon, over 100 µM in the assay with SF-268 CNS and 64 µM with OVCAR-8 ovarian.
Regarding `CC1CCCN1CCCOC(=O)c1ccc(OC2C=CCCC2)cc1` (stereo not drawn), the TGI is over 100 µM in the assay on SK-OV-3 ovarian; over 100 µM with U251 CNS; over 100 µM in the assay with MDA-N; 32.9 µM in the assay on NCI-H460 lung; over 100 µM in the assay with DU-145 prostate; 71.8 µM with HS 578T breast. The TGI with A549 NSCLC was over 100 µM; in the assay with HT29 colon, 60.4 µM; in the assay with SF-268 CNS, over 100 µM; with OVCAR-8 ovarian, over 100 µM.
Regarding `O=C(NCc1ccccc1Cl)c1c(O)c2ccccc2[nH]c1=O`, the TGI in the assay with U251 CNS was 40.7 µM; in the assay on MDA-N it was over 100 µM; in the assay with HOP-92 NSCLC, 58.7 µM; with NCI-H460 lung, over 100 µM; in the assay with DU-145 prostate it was over 100 µM; with HS 578T breast, over 100 µM. For the same compound, the TGI in the assay with A549 NSCLC, in the assay with HT29 colon, in the assay with SF-268 CNS and in the assay on OVCAR-8 ovarian was over 100 µM each time.
`O=S(=O)(O)c1cc(O)c(N=Nc2ccc3ccccc3c2O)c2ccccc12`: the TGI with SK-OV-3 ovarian is over 100 µM; in the assay on U251 CNS it was over 100 µM; with MDA-N, over 100 µM; in the assay with HOP-92 NSCLC it was over 100 µM; with DU-145 prostate, 31.6 µM; in the assay with HS 578T breast, over 100 µM. Besides, the TGI is 52.6 µM with A549 NSCLC, 72.3 µM in the assay on HT29 colon and 58.7 µM in the assay with SF-268 CNS.
Regarding `Clc1cc2ncn(C3CCCCO3)c2cc1Cl` (stereo not drawn), the TGI in the assay on SK-OV-3 ovarian was over 100 µM; with U251 CNS, over 100 µM; in the assay on MDA-N it was over 100 µM; with DU-145 prostate, over 100 µM; in the assay on HS 578T breast, 85.4 µM; in the assay on A549 NSCLC it was over 100 µM. Also, the TGI in the assay with HT29 colon, with SF-268 CNS and in the assay on OVCAR-8 ovarian was over 100 µM in each case.
Take `C=CCOC(=O)N1c2ccc(O)cc2[C@@]23O[C@@]24[C@@H]1C#C/C=C\C#C[C@]3(O)C(=O)C[C@@H]4C`: the TGI in the assay with U251 CNS, in the assay with MDA-N, with HOP-92 NSCLC, in the assay on NCI-H460 lung, in the assay with DU-145 prostate and in the assay with HS 578T breast was over 100 µM each time. The TGI with A549 NSCLC, in the assay with HT29 colon, with SF-268 CNS and in the assay with OVCAR-8 ovarian was over 100 µM each time.
In the case of `c1cc2c(cc1[C@@H]1OC[C@@H]3[C@H]1CO[C@H]3c1ccc3c(c1)OCO3)OCO2`, the TGI in the assay on SK-OV-3 ovarian, in the assay with U251 CNS, in the assay on MDA-N, with HOP-92 NSCLC, with NCI-H460 lung and in the assay with DU-145 prostate was over 100 µM throughout. Moreover, the TGI in the assay on A549 NSCLC, in the assay on HT29 colon, in the assay with SF-268 CNS and with OVCAR-8 ovarian was over 100 µM each time.
Consider `CC[C@@]1(O)C(=O)OCc2c1cc1n(c2=O)Cc2c-1nc1ccccc1c2C=Nc1ccccc1N[C@@H]1c2cc3c(cc2[C@@H](c2cc(OC)c(O)c(OC)c2)[C@H]2C(=O)OC[C@@H]21)OCO3`, for which the GI50 in the assay with SK-OV-3 ovarian was 1.23 µM and 0.213 µM; in the assay with MDA-N, 0.616 µM and 0.183 µM; with HS 578T breast, 4.87 µM and 0.875 µM; in the assay with HT29 colon it was 0.327 µM and 0.125 µM; in the assay with OVCAR-8 ovarian it was 0.0551 µM and 0.28 µM. Moreover, the TGI in the assay on SK-OV-3 ovarian is 15.2 µM; with U251 CNS it was 34.6 µM; in the assay on MDA-N, 28 µM and 3.12 µM; with HOP-92 NSCLC, over 100 µM; with DU-145 prostate it was 0.0979 µM and 0.0432 µM; with HS 578T breast, over 100 µM. The TGI in the assay on A549 NSCLC was 7.62 µM; with HT29 colon, over 50 µM; in the assay on SF-268 CNS it was over 82.3 µM; in the assay with OVCAR-8 ovarian, 2.15 µM and 4.12 µM.
